Consider one molecule from ChEMBL document CHEMBL5325510, “Vincamine, from an antioxidant and a cerebral vasodilator to its anticancer potential” (Bioorg Med Chem, 2023).

The subject of one assay is B16. In words: Cytotoxicity against mouse B16 cells assessed as reduction in cell viability measured after 96 hrs by microplate reader based MTT assay. The assay is classed as functional. For orientation: Tetrazolium dyes change colour on reduction, which living cells bring about.
For the next assay, the system named is A549. The experiment in a line: Cytotoxicity against human A549 cells assessed as reduction in cell viability measured after 48 hrs by MTT assay. Format: functional, cell-based. The conditions noted are these: A549, 48 h.
A further assay has as its system HEp-2. The experiment in a line: Cytotoxicity against human HEp-2 cells assessed as reduction in cell growth. The assay is classed as functional, cell-based.
The test system of the next assay is KB. The experiment in a line: Cytotoxicity against human KB cells assessed as cell growth inhibition incubated for 48 hrs by MTT assay. The assay is classed as functional, cell-based.

For the molecule `CC[C@]12CCCN3CCc4c(n(c5ccccc45)[C@@](O)(C(=O)OC)C1)[C@@H]32` [VINCAMINE], the IC50 was 68.9 µM in the assay on B16, 310 µM in the assay on A549, 274 µM in the assay on HEp-2 and 232 µM in the assay on KB.

What is called IC50 is the concentration that inhibits the measured activity by half.
